Laboratory results published in patent US20260028365A1 (BIOGEN MA INC., priority 2022, published 2026).
Like-named read-outs stand apart in the source and are kept apart here.

What was measured:
[1] = target: JH2 domain of human Tyk2 (Homo sapiens (Human), UniProt P29597); assay: JH2 Biochemical Assay (TR-FRET probe displacement); format: binding
[2] = target: Tyk2 (Homo sapiens (Human), UniProt P29597); assay: pSTAT4 Cell Assay (MSD, NK92 cells); format: cell-based
[3] = target: JAK2 (Homo sapiens (Human), UniProt O60674); assay: pSTAT5 Cell Assay (MSD, TF1 cells); format: cell-based
Chain of JAK2 (O60674 whole entry): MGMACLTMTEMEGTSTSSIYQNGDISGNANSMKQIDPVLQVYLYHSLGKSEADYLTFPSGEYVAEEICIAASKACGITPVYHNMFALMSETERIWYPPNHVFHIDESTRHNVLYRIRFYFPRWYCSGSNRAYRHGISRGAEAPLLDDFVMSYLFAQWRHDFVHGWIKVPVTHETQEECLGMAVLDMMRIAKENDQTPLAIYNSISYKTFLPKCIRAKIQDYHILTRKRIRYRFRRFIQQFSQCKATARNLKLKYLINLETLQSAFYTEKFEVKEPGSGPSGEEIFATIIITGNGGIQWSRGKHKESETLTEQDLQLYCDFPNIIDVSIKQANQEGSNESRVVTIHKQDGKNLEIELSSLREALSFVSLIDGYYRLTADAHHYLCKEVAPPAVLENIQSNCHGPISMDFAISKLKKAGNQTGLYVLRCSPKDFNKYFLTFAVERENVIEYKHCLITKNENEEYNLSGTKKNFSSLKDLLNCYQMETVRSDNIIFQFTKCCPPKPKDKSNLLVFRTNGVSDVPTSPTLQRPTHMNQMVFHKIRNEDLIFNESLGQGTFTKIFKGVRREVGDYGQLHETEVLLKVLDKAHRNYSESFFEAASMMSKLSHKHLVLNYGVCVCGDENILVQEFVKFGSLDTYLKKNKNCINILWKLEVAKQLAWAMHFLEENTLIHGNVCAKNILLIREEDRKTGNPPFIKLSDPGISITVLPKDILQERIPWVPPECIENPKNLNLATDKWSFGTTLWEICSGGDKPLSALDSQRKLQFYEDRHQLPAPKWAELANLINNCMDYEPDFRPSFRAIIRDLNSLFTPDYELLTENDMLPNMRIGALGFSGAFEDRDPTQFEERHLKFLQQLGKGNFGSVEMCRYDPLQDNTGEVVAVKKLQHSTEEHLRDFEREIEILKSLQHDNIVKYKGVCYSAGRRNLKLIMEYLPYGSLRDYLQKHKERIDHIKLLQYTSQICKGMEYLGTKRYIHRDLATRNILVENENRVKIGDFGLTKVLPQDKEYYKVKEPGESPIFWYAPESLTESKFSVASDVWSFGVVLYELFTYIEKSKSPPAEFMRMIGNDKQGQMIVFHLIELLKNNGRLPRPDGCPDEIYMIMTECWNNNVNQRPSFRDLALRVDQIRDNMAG
Experimental: Compounds of the disclosure were assessed for their ability to inhibit the JAK2 kinase activity on STAT5 utilizing an MSD-platform plate-based assay format. TF1 cells natively expressing STAT5 and JAK2 were serum-starved to reduce background phosphorylation levels, then cells were treated with compounds of disclosure for 1 hour with a 10-point four-fold dilution series starting at 10 μM. Cells were then stimulated with 30 ng/mL IL-3 for 15 minutes. Cells were then lysed and pSTAT5 levels were quantitated using an MSD plate-based assay with anti-STAT5 antibodies. The data were normalized and the percent activity versus log concentration of compound was fitted with a 4-parameter logistic model to generate a curve and an IC50 value.

[4] = target: JAK1 (Homo sapiens (Human), UniProt P23458); assay: pSTAT3 Cell Assay (MSD, TF1 cells); format: cell-based
Chain of JAK1 (P23458 whole entry): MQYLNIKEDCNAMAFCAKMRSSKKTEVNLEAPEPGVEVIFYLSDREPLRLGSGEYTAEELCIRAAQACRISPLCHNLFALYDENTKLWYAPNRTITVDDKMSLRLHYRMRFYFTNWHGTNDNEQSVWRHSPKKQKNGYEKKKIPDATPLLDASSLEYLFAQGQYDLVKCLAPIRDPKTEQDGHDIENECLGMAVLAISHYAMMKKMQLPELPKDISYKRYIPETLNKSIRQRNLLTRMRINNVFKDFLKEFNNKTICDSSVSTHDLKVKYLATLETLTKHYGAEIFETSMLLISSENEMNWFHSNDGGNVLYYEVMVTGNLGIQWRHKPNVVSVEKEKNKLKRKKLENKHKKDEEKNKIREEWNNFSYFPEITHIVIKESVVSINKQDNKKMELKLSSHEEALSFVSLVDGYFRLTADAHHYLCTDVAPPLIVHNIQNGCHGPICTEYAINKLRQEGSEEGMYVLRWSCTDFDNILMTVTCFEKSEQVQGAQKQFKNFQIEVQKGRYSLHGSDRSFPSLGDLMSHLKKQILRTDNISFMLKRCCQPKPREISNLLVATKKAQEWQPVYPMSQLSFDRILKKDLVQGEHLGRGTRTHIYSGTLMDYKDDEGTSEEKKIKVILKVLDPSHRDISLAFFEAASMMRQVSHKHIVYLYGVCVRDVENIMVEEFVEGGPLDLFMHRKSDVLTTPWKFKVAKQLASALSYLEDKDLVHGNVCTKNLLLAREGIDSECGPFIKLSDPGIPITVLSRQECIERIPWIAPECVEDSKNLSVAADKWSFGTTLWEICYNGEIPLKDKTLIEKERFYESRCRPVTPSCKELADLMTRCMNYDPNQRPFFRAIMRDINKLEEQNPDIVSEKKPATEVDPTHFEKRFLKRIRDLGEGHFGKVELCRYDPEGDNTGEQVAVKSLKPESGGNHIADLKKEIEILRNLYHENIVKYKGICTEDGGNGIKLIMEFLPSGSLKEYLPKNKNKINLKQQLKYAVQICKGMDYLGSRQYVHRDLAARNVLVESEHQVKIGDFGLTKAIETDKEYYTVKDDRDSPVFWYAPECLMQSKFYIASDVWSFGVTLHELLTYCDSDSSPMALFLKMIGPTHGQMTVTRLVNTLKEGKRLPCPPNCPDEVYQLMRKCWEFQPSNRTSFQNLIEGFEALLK
How it was run: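 IC50 values reflect 4-parameter logistic fits of normalized pSTAT3 signal, measured by MSD in lysed TF1 cells. Cells were serum-starved and treated with compound for 1 h (top concentration 10 μM) before a 15 min IL-6 challenge.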

[5] = JH2 domain of human Tyk2, TR-FRET probe displacement
[6] = TR-FRET probe displacement, JH2 domain of human Tyk2

Chain of JH2 domain of human Tyk2 (P29597 575-876): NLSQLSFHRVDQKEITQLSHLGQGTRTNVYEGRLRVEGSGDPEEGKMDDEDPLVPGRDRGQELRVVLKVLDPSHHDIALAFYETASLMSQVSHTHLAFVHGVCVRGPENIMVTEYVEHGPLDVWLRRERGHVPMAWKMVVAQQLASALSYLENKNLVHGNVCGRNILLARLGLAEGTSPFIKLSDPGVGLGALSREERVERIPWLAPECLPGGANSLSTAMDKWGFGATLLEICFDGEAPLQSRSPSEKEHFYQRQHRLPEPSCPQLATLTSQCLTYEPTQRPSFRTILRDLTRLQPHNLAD
Chain of Tyk2 (P29597 whole entry): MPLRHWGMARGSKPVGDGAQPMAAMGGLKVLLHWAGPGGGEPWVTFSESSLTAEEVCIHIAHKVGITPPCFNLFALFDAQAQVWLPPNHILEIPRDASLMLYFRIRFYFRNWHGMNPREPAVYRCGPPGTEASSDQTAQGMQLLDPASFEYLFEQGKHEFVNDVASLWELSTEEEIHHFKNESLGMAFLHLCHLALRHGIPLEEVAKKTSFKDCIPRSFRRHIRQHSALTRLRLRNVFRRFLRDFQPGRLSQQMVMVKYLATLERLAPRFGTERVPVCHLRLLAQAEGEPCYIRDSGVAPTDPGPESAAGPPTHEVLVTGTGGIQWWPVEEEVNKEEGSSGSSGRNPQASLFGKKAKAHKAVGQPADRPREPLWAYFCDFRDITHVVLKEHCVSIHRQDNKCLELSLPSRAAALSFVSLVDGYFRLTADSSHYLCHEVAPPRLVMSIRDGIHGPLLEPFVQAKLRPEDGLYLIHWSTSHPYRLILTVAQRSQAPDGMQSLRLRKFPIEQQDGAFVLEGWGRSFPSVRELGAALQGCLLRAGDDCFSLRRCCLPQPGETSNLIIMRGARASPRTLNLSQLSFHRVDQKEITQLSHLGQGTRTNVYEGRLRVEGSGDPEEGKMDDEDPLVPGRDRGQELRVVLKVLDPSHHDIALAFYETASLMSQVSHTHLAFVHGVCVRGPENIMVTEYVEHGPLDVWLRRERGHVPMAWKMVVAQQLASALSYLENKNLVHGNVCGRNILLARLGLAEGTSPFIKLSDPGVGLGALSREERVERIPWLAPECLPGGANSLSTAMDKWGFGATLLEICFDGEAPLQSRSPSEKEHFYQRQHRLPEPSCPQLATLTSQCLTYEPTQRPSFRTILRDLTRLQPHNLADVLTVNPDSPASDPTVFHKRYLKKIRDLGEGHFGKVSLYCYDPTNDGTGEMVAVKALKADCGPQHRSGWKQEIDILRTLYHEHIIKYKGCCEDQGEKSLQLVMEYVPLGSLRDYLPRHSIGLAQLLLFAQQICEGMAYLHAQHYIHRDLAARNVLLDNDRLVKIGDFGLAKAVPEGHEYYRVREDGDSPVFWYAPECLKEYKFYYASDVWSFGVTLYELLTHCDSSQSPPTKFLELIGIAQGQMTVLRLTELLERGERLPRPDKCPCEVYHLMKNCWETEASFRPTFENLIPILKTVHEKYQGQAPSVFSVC

| SMILES | IC50 ([1]; TR-FRET probe displacement, JH2 domain) | IC50 [2] | IC50 ([3]; IL-3 stimulated) | IC50 ([4]; IL-6 stimulated) | IC50 [1, 5] | IC50 ([2]; MSD) | IC50 ([3]; IL-3 stimulated, MSD) | IC50 ([4]; IL-6 stimulated, MSD) | IC50 [1, 6] | IC50 ([3]; IL-3 stimulation, MSD) | IC50 ([4]; IL-6 stimulation, MSD) |
| --- | --- | --- | --- | --- | --- | --- | --- | --- | --- | --- | --- |
| CC(=O)Nc1cc(Nc2ccnc(C(C)(F)F)n2)c(-c2cnc(C(C)(C)O)cn2)cn1 [Example 853, N-(4-((2-(1,1-difluoroethyl)pyrimidin-4-yl)amino)-5-(5-(2-hydroxypropan-2-yl)pyrazin-2-yl)pyridin-2-yl)acetamide] | ≤ 10 nM | 10 to 100 nM | ≥ 1000 nM | ≥ 1000 nM | – | – | – | – | – | – | – |
| CC(=O)Nc1cc(Nc2cc(C)nc(C(C)(C)F)n2)c(-c2ccn3ncnc3n2)cn1 [Example 534, N-(5-([1,2,4]triazolo[1,5-a]pyrimidin-5-yl)-4-((2-(2-fluoropropan-2-yl)-6-methylpyrimidin-4-yl)amino)pyridin-2-yl)acetamide] | – | – | – | – | ≤ 10 nM | ≤ 10 nM | ≥ 1000 nM | ≥ 1000 nM | – | – | – |
| COCCOc1cnc(NC(C)=O)cc1Nc1cc(OC2CC2)nc(C(C)(C)F)n1 [Example 446, N-(4-((6-cyclopropoxy-2-(2-fluoropropan-2-yl)pyrimidin-4-yl)amino)-5-(2-methoxyethoxy)pyridin-2-yl)acetamide] | – | – | – | – | ≤ 10 nM | ≤ 10 nM | ≥ 1000 nM | ≥ 1000 nM | – | – | – |
| COc1cnc(NC(C)=O)cc1Nc1cc(C)nc(C(C)(F)F)n1 [Example 46, N-(4-((2-(1,1-difluoroethyl)-6-methylpyrimidin-4-yl)amino)-5-methoxypyridin-2-yl)acetamide] | – | – | – | – | – | 10 to 100 nM | – | – | ≤ 10 nM | ≥ 1000 nM | ≥ 1000 nM |
| CC(=O)Nc1cc(Nc2cc(C)nc(C(C)(F)F)n2)c(-c2ccc(CN(C)C)cn2)cn1 [Example 648, N-(4′-((2-(1,1-difluoroethyl)-6-methylpyrimidin-4-yl)amino)-5-((dimethylamino)methyl)-[2,3′-bipyridin]-6′-yl)acetamide] | – | – | – | – | ≤ 10 nM | ≤ 10 nM | ≥ 1000 nM | ≥ 1000 nM | – | – | – |
| CC(=O)Nc1cc(Nc2cc(OC3CC3)nc(C(C)(F)F)n2)c(OCC2COCCO2)cn1 (stereo not shown) [Example 445, N-(5-((1,4-dioxan-2-yl)methoxy)-4-((6-cyclopropoxy-2-(1,1-difluoroethyl)pyrimidin-4-yl)amino)pyridin-2-yl)acetamide] | – | – | – | – | ≤ 10 nM | ≤ 10 nM | ≥ 1000 nM | ≥ 1000 nM | – | – | – |
| COCCn1ncc(-c2cnc(NC(C)=O)cc2Nc2cc(C)nc(C(C)(F)F)n2)n1 [Example 260, N-(4-((2-(1,1-difluoroethyl)-6-methylpyrimidin-4-yl)amino)-5-(2-(2-methoxyethyl)-2H-1,2,3-triazol-4-yl)pyridin-2-yl)acetamide] | – | – | – | – | – | ≤ 10 nM | – | – | ≤ 10 nM | ≥ 1000 nM | ≥ 1000 nM |
| CCc1cc(Nc2cc(NC(C)=O)ncc2OCCCOC)nc(C(C)(F)F)n1 [Example 69, N-(4-((2-(1,1-difluoroethyl)-6-ethylpyrimidin-4-yl)amino)-5-(3-methoxypropoxy)pyridin-2-yl)acetamide] | – | – | – | – | – | 10 to 100 nM | – | – | ≤ 10 nM | ≥ 1000 nM | ≥ 1000 nM |
| CC(=O)Nc1cc(Nc2cc(C)nc(C(C)(F)F)n2)c(-c2ccncn2)cn1 [Example 270, N-(4-((2-(1,1-difluoroethyl)-6-methylpyrimidin-4-yl)amino)-5-(pyrimidin-4-yl)pyridin-2-yl)acetamide] | – | – | – | – | – | ≤ 10 nM | – | – | ≤ 10 nM | ≥ 1000 nM | ≥ 1000 nM |
| CCOc1cnc(NC(C)=O)cc1Nc1ccnc(C(C)(F)F)n1 [Example 4, N-(4-((2-(1,1-difluoroethyl)pyrimidin-4-yl)amino)-5-ethoxypyridin-2-yl)acetamide] | – | – | – | – | – | 10 to 100 nM | – | – | ≤ 10 nM | ≥ 1000 nM | ≥ 1000 nM |
| CC(=O)Nc1cc(Nc2cc(C)nc(C(C)(C)F)n2)c(-c2cc(C)ncn2)cn1 [Example 200, N-(4-((2-(2-fluoropropan-2-yl)-6-methylpyrimidin-4-yl)amino)-5-(6-methylpyrimidin-4-yl)pyridin-2-yl)acetamide] | – | – | – | – | – | 10 to 100 nM | – | – | ≤ 10 nM | ≥ 1000 nM | ≥ 1000 nM |
| COCCOc1cnc(NC(C)=O)cc1Nc1cc(OC(C)C)nc(C(C)(F)F)n1 [Example 76, N-(4-((2-(1,1-difluoroethyl)-6-isopropoxypyrimidin-4-yl)amino)-5-(2-methoxyethoxy)pyridin-2-yl)acetamide] | – | – | – | – | – | ≤ 10 nM | – | – | ≤ 10 nM | ≥ 1000 nM | ≥ 1000 nM |
| CCc1cc(Nc2cc(NC(C)=O)ncc2-c2ccc(COC)cn2)nc(C23COC(C2)C3)n1 [Example 566, N-(4′-((2-(2-oxabicyclo[2.1.1]hexan-4-yl)-6-ethylpyrimidin-4-yl)amino)-5-(methoxymethyl)-[2,3′-bipyridin]-6′-yl)acetamide] | – | – | – | – | ≤ 10 nM | ≤ 10 nM | ≥ 1000 nM | ≥ 1000 nM | – | – | – |
